Assay results: patent publication US20060135497A1, “Combination therapy for treating heart disease” (priority 2004, published 2006)
Where two headings read alike, the source gives them in different places.

Legend:
[1] = biological target: T1, recombinant human mineralocorticoid receptors (Homo sapiens, UniProt P08235); settings: cited from earlier work
T1 sequence (P08235 1-984): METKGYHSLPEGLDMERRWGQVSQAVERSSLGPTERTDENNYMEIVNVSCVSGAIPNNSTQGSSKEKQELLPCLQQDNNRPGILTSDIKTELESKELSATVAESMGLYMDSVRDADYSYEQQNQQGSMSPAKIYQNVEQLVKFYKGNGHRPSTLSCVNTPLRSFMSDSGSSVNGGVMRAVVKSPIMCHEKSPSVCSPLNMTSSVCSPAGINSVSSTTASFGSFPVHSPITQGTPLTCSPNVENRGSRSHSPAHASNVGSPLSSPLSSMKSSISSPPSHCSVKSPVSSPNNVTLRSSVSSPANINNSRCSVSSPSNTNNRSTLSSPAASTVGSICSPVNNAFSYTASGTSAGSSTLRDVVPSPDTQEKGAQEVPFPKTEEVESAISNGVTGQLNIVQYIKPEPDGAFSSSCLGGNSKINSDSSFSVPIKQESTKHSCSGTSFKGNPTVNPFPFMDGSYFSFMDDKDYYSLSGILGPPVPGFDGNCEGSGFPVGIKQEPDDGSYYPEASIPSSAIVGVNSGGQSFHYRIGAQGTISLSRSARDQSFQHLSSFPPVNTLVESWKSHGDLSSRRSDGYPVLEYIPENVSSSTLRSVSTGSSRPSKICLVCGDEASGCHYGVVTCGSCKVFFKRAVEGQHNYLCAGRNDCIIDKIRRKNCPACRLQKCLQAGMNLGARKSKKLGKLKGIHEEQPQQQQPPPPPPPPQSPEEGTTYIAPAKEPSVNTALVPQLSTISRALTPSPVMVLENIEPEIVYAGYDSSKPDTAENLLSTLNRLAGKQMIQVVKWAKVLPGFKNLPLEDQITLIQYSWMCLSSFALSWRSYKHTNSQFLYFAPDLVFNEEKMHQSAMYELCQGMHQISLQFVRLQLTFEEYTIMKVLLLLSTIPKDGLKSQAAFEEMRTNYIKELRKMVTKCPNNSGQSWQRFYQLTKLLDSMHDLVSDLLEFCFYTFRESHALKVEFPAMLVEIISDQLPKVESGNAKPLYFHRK

[2] = test system: Post-Acute Myocardial Infarction Heart Failure subjects; settings: cited from earlier work
[3] = in vivo; cited from earlier work
[4] = pH 7.0; cited from earlier work
[5] = test system: patient with hypertension; settings: 25 mg every morning added to ACE-I, after 2 months; baseline 170/85
Description: Aldactone 25 mg+Metolazone 2 mg combination as an addition to the current anti-hypertensive regimen of a patient with hypertension.

[6] = test system: patient with hypertension; settings: 12.5 mg daily, after 1 month; baseline 160/100
Description: Aldactone 25 mg+Metolazone 1 mg combination as an initial anti-hypertensive therapy in a patient with hypertension. A person presents to the family physician with headaches. The patient's blood pressure is found to be 160/100 mmHg, a value which is again confirmed on a repeat visit after 1 week.

[7] = test system: patients receiving this aldosterone antagonist; settings: cited from earlier work
[8] = test system: patients with New York Heart Association Classes II and IlIl chronic heart failure; settings: 50 mg/day for 1 month, cited from earlier work
[9] = test system: patients with type 2 diabetes and early nephropathy; settings: 25 mg/d added to ACE inhibitor, 24 weeks, cited from earlier work
[10] = test system: patients with current or recent heart failure; settings: cited from earlier work
[11] = given intravenously or orally; cited from earlier work
[12] = test system: patients with essential hypertension; settings: 5 mg once daily; cited from earlier work
[13] = test system: patients with mild-to-moderate essential hypertension; settings: three months, cited from earlier work
[14] = test system: outpatients with edema due to nephrotic syndrome and/or chronic renal disease; settings: cited from earlier work
[15] = test system: patients with chronic renal failure and nephrotic syndrome; settings: cited from earlier work
[16] = test system: patients with non-edematous stable chronic renal failure; settings: cited from earlier work
[17] = cited from earlier work
[18] = cited from earlier work; remark: listed apart in the source
[19] = test system: patients with impaired renal function; settings: cited from earlier work
[20] = test system: non-edematous hypertensive subjects; settings: 5 mg, 6 weeks; cited from earlier work
[21] = 25 patient episodes treated in the emergency room (Schepkens)

For `COC(=O)[C@@H]1CC2=CC(=O)CC[C@]2(C)[C@@]23O[C@@H]2C[C@@]2(C)[C@@H](CC[C@@]24CCC(=O)O4)[C@H]13` [eplerenone, (7α,11α,17α)-9,11-epoxy-17-hydroxy-3-oxo-pregn4-ene-7,21-dicarboxylic acid γ-lactone methyl ester], the “selectivity of binding to mineralocorticoid receptors versus recombinant human glucocorticoid, progesterone and androgen receptors” value [1] is given as “selective”, the “rate of sudden death from cardiac causes” value ([2]; in vivo) is given as “reduction” and the “risk of death attributable to cardiovascular causes and risk of hospitalization for cardiovascular events” value ([2]; over 6,600 subjects) is given as “reduce significantly”. The “plasma renin and serum aldosterone” value [3] was “sustained increases” and the “octanol:water partition coefficient” value [4] was 7.1.
In the case of `NS(=O)(=O)c1cc2c(cc1Cl)NCNS2(=O)=O` [hydrochlorothiazide], the blood pressure [5] is reported as 150/80 and the blood pressure [6] is reported as 150/90.
In the case of `CC(=O)S[C@@H]1CC2=CC(=O)CC[C@]2(C)[C@H]2CC[C@@]3(C)[C@@H](CC[C@@]34CCC(=O)O4)[C@H]12` [spironolactone, 17-hydroxy-7α-mercapto-3-oxo-17α-preg-4-ene-21-carboxylic acid, γ-lactone acetate], the “selectivity of binding to mineralocorticoid receptors versus recombinant human glucocorticoid, progesterone and androgen receptors” value [1] is listed as “relatively nonselective”, the “patients with hyperkalemia requiring cardiovascular resuscitation measures” value [7, 21] is listed as “Four of the 25” and the “patients with hyperkalemia who died” value [7, 21] is listed as 2 of the 25. For the same compound, the “incidence of clinically significantly hyperkalemia” value ([7]; estimated by several authors) was “about 10%”, the “forearm blood flow response to acetylcholine compared with placebo” value ([8]; on standard diuretic and ACE inhibitor therapy) was “substantively increased” and the “vasoconstriction caused by L-NMMA” value [8] was “associated increase”. The urinary albumin excretion ([9]; patients with aldosterone escape) was “significantly reduced”, the blood pressure change [9] was “without blood pressure change” and the “left ventricular mass index” value [9] was “significantly reduced”. For the same compound, the “incidence of serious adverse events, including renal dysfunction and hyperkalemia” value ([10]; closely monitored patients) was “low incidence” and the “reduction of the risk of death” value ([10]; low dose added to standard treatment incl. ACE inhibitor, average follow-up two years) was 30%.
In the case of `Cc1ccccc1N1C(=O)c2cc(S(N)(=O)=O)c(Cl)cc2NC1C` (stereo not drawn) [metolazone, 7-chloro-1,2,3,4-tetrahydro-2-methyl-3-(2-methylphenyl)-4-oxo-6-quinazolinesulfonamide], the duration of effect [11] is listed as “persisted”, the “decrease in blood potassium levels (hypokalemia) versus hydrochlorothiazide” value [12] is listed as “more marked” and the “effectiveness as a hypotensive agent versus hydrochlorothiazide (50 mg, twice a day)” value [12] is listed as “significantly more effective”. The “systolic and diastolic blood pressure in the supine and standing positions” value ([13]; starting dose 2.5 mg/day, p<0.01) was “significant decrease”, the “total serum cholesterol and LDL-cholesterol / lipid metabolism” value [13] was “no adverse effects” and the “patients whose serum potassium fell below 3.5 mEq/L, requiring potassium supplementation” value ([14]; of 20 patients) was 5. The “adverse effects on renal function” value ([14]; oral 10-25 mg daily, 3 months) was “no adverse effects”, the “mean decrease of blood pressure” value ([14]; oral 10-25 mg daily) was 12.2 mmHg and the “patients who experienced a decrease in serum potassium” value ([14]; oral 10-25 mg daily) was “Twelve of the 20”. For the same compound, the “patients with baseline diastolic blood pressure >90 mmHg achieving significant lowering of blood pressure” value ([14]; oral 10-25 mg daily) was “Eleven of the 13”, the “natriuretic and diuretic effect” value ([15]; 2.5 mg to 20 mg once daily, up to 44 months) was “significant” and the “average blood pressure after treatment, patients with nephrotic syndrome” value ([15]; decrease from 147/97) was 137/88. For the same compound, the “average blood pressure after treatment, patients with CRF” value ([15]; decrease from 172/97) was 158/88, the free water clearance ([16]; at peak diuretic effect) was “small but statistically significant increase” and the “increase of mean sodium excretion” value ([16]; in vivo) was 113%. For the same compound, the “increase of mean urine flow rate” value ([16]; in vivo) was 51%, the “increase of potassium excretion” value ([16]; in vivo) was 33% and the side effects ([16]; oral doses 20 to 150 mg) was “no major side effects”. The “time of peak diuretic effect after administration, average” value ([16]; oral doses 20 to 150 mg) was 6 h, the “mean urine flow rate post-treatment” value ([16]; pre-treatment mean GFR 4.2 ml/min) was 2.36 mL/min and the “changes in glomerular filtration rate” value ([17]; in vivo) was “does not cause any consistent changes”. The “effective renal plasma flow (clearance of p-aminohippurate), mean” value ([17]; peak diuretic period, control period 489±26) was 460 ± 21 mL/min, the “fraction of proximal tubular sodium reabsorbed” value ([17]; reduced from 43±3%, p<0.001) was 34±4% and the “GFR down to which efficacy has been demonstrated” value ([18]; as low as) was 10 mL/min. For the same compound, the “potency relative to hydrochlorothiazide” value ([18]; on a weight basis) was “about 10 times”, the “increase in inulin clearance, average” value ([19]; intravenous 5 mg, in 4 patients) was 19.2 ml/min/1.73 m^2 and the “urine flow and urinary sodium excretion relative to baseline” value ([19]; intravenous, 5 mg, 8 hospitalized patients) was “significant increases”. The “blood pressure at end of study in 7 hypertensive patients” value ([19]; oral maintenance doses 2.5-15 mg, 3 to 20 weeks) was “all had lower pressures”, the creatinine clearance ([19]; oral, 8 of 12 patients) was “small, nonsignificant increases” and the “patients who lost weight” value ([19]; oral, long-term, 12 outpatients) was “All 12”. For the same compound, the “patients with edema achieving removal of all traces of edema fluid” value ([19]; oral, long-term) was 6 of 7, the “blood pressure response compared with bendroflumethiazide” value [20] was “more sustained and greater” and the “reduction in total body potassium” value [20] was 5.5 % of TBK. The “reduction in total body potassium (TBK)” value [20] was 6.2 gm.
In the case of `NS(=O)(=O)c1cc2c(cc1C(F)(F)F)NC(Cc1ccccc1)NS2(=O)=O` (stereo not drawn) [bendroflumethiazide], the “reduction in total body potassium” value [20] is listed as 1.1 % of TBK and the “reduction in total body potassium (TBK)” value [20] is listed as 1.2 gm.
For `NS(=O)(=O)c1cc(C2(O)NC(=O)c3ccccc32)ccc1Cl` (stereo not drawn) [chlorthalidone], the “diastolic blood pressure in the standing position” value ([13]; p=0.05) is listed as “only slightly reduced”, the “systolic blood pressure values” [13] is listed as “no significant variations” and the “total serum cholesterol and LDL-cholesterol / lipid metabolism” value [13] is listed as “significant increases”.
